Measured values as given in patent publication US8309552B2, “Immunomodulating heterocyclic compounds” (Medigene AG, priority 2003, dated 2012).

What follows are compounds tested against T1, CD80-CD28 interaction (Homo sapiens, UniProt P33681) (assay: Homogenous Time Resolved Fluorescence (HTRF) assay, cell free). Settings: cell free HTRF assay; concentration series 100 μM-1.7 nM; 4 hours at room temperature; read-out: Activity (EC50 in the HTRF assay).
T1 sequence (P33681 35-242 limits assumed): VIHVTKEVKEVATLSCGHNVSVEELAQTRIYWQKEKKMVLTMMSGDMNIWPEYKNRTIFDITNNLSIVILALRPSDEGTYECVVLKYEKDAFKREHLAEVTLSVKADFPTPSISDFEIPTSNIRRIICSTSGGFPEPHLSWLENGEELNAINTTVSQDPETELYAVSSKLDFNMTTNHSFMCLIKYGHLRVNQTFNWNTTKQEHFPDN
Type: binding
In short: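 Europium and APC labels were linked through antibodies to CD28 and CD80 fusion proteins. Compounds were tested at 100 μM-1.7 nM for 4 h at room temperature in 50 mM Tris-HCl, 150 mM NaCl pH7.8, 0.1% BSA. Emission read at 665 and 615 nm (excitation 340 nm); non-specific signal measured with C215 Fab in place of CD80; EC50 reported in bands.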

Row | EC50 [nM] | Compound
1 | < 1000 | C#CC1(NC(=O)c2ccc(-n3[nH]c4c(nnc5ccccc54)c3=O)cc2)CCCCC1 [Example 314]
2 | > 10000 | O=C(NCCSCc1c(F)cccc1Cl)c1ccc(-n2[nH]c3c(nnc4ccccc43)c2=O)cc1 [Example 254]
3 | < 1000 | CC(C)(C)NC(=O)c1ccc(-n2[nH]c3c(nnc4cccc(F)c43)c2=O)cc1 [Example 400]
4 | < 1000 | CCCCNCCNC(=O)c1ccc(-n2[nH]c3c(nnc4c(F)cccc43)c2=O)cc1 [Example 344]
5 | < 1000 | CCN(CC)CCNC(=O)c1ccc(-n2[nH]c3c(nnc4c(F)cccc43)c2=O)cc1 [Example 342]
6 | > 10000 | O=C(NCCc1cccc(Br)c1)c1ccc(-n2[nH]c3c(nnc4c(F)cccc43)c2=O)cc1 [Example 365]
7 | > 10000 | CC(NC(=O)Nc1ccc(-n2[nH]c3c(nnc4ccccc43)c2=O)cc1)C(C)(C)C (stereo not shown) [Example 262]
8 | < 1000 | CCCCNCCNC(=O)c1ccc(-n2[nH]c3c(nnc4ccc(F)cc43)c2=O)cc1 [Example 384]
9 | > 10000 | O=C(NCCc1cccs1)c1ccc(-n2[nH]c3c(nnc4ccccc43)c2=O)cc1 [Example 255]
10 | < 1000 | O=C(CN1CCC(NC(=O)c2ccc(-n3[nH]c4c(nnc5c(F)cccc54)c3=O)cc2)CC1)c1ccccc1 [Example 334]
11 | < 1000 | CC1(C)CC(NC(=O)c2ccc(-n3[nH]c4c(nnc5cccc(F)c54)c3=O)cc2)CC(C)(C)N1 [Example 403]
12 | < 1000 | O=C(NC1CCN(Cc2ccccc2)C1)c1ccc(-n2[nH]c3c(nnc4cccc(F)c43)c2=O)cc1 (stereo not shown) [Example 399]
13 | < 1000 | CCOCCN1CCC(NC(=O)c2ccc(-n3[nH]c4c(nnc5c(F)cccc54)c3=O)cc2)CC1 [Example 335]
14 | < 1000 | O=C(NCCCN1CCOCC1)c1ccc(-n2[nH]c3c(nnc4cccc(F)c43)c2=O)cc1 [Example 397]
15 | < 1000 | O=C(NC1CCCC1)c1ccc(-n2[nH]c3c(nnc4c(F)cccc43)c2=O)cc1 [Example 425]
16 | > 10000 | CC(C)=CCC/C(C)=C/CNC(=O)Nc1ccc(-n2[nH]c3c(nnc4ccccc43)c2=O)cc1 [Example 283]
17 | 1000 to 10000 | CC(C)(C)OC(=O)N1CCN(CCNC(=O)Nc2ccc(-n3[nH]c4c(nnc5ccccc54)c3=O)cc2)CC1 [Example 294]
18 | < 1000 | C=C(C)CNC(=O)c1ccc(-n2[nH]c3c(nnc4c(F)cccc43)c2=O)cc1 [Example 340]
19 | 1000 to 10000 | O=C(NCCc1c[nH]c2ccccc12)c1ccc(-n2[nH]c3c(nnc4ccccc43)c2=O)cc1 [Example 268]
20 | < 1000 | CC=CCNC(=O)c1ccc(-n2[nH]c3c(nnc4c(F)cccc43)c2=O)cc1 [Example 333]
21 | 1000 to 10000 | O=C(NCCc1c(Cl)cccc1Cl)c1ccc(-n2[nH]c3c(nnc4c(F)cccc43)c2=O)cc1 [Example 371]
22 | < 1000 | CN1C(C)(C)CC(NC(=O)c2ccc(-n3[nH]c4c(nnc5c(F)ccc(F)c54)c3=O)cc2)CC1(C)C [Example 431]
23 | 1000 to 10000 | O=C(NCCc1ccccc1Cl)c1ccc(-n2[nH]c3c(nnc4c(F)cccc43)c2=O)cc1 [Example 360]
24 | < 1000 | CNCCNC(=O)c1ccc(-n2[nH]c3c(nnc4c(F)cccc43)c2=O)cc1 [Example 356]
25 | > 10000 | O=C(NCCc1ccccc1)c1ccc(-n2[nH]c3c(nnc4ccccc43)c2=O)cc1 [Example 270]
26 | < 1000 | CC(C)NCCCNC(=O)c1ccc(-n2[nH]c3c(nnc4c(F)cccc43)c2=O)cc1 [Example 348]
27 | < 1000 | CS(=O)(=O)c1ccc(CN2CCC(NC(=O)c3ccc(-n4[nH]c5c(nnc6c(F)cccc65)c4=O)cc3)CC2)cc1 [Example 380]
28 | 1000 to 10000 | O=C(NCC1CCCCC1)c1ccc(-n2[nH]c3c(nnc4ccccc43)c2=O)cc1 [Example 244]
29 | < 1000 | O=C(NCCNCc1ccccc1)c1ccc(-n2[nH]c3c(nnc4c(F)cccc43)c2=O)cc1 [Example 347]
30 | < 1000 | O=C(NCCCNC1CCCCC1)c1ccc(-n2[nH]c3c(nnc4c(Cl)cccc43)c2=O)cc1 [Example 412]

Same assay, conditions: cell-free HTRF, compound concentration series 100 μM-1.7 nM, 4 hours at room temperature; read-out: Activity (EC50 in the HTRF assay)

Row | EC50 [nM] | Compound
31 | < 1000 | CN1CCN(CCCNC(=O)Nc2ccc(-n3[nH]c4c(nnc5ccccc54)c3=O)cc2)CC1 [Example 129]
32 | 1000 to 10000 | CC(C)CCC(C)NC(=O)c1ccc(-n2[nH]c3c(nnc4ccccc43)c2=O)cc1 (stereo not shown) [Example 96]
33 | < 1000 | CCNCCNC(=O)c1ccc(-n2[nH]c3c(nnc4ccccc43)c2=O)cc1 [Example 49]
34 | > 10000 | O=C(NCc1ccc(F)cc1)Nc1ccc(-n2[nH]c3c(nnc4ccccc43)c2=O)cc1 [Example 126]
35 | 1000 to 10000 | CCOC(=O)CCC(NC(=O)Nc1ccc(-n2[nH]c3c(nnc4ccccc43)c2=O)cc1)C(=O)OCC (stereo not shown) [Example 189]
36 | < 1000 | C=CCNC(=O)Nc1ccc(-n2[nH]c3c(nnc4ccccc43)c2=O)cc1 [Example 131]
37 | 1000 to 10000 | O=C(NCCc1ccccn1)c1ccc(-n2[nH]c3c(nnc4ccccc43)c2=O)cc1 [Example 76]
38 | 1000 to 10000 | O=C(NCCOc1ccccc1)c1ccc(-n2[nH]c3c(nnc4ccccc43)c2=O)cc1 [Example 63]
39 | 1000 to 10000 | O=C(Nc1ccc(-n2[nH]c3c(nnc4ccccc43)c2=O)cc1)NC1CCOC1=O (stereo not shown) [Example 153]
40 | > 10000 | CCOC(=O)C1CCCC1NC(=O)Nc1ccc(-n2[nH]c3c(nnc4ccccc43)c2=O)cc1 (stereo not shown) [Example 164]
41 | 1000 to 10000 | CC(C)CCNC(=O)c1ccc(-n2[nH]c3c(nnc4ccccc43)c2=O)cc1 [Example 82]
42 | 1000 to 10000 | O=C(NCCCCCO)Nc1ccc(-n2[nH]c3c(nnc4ccccc43)c2=O)cc1 [Example 151]
43 | < 1000 | O=C(NC1CCCN(Cc2ccccc2)C1)c1ccc(-n2[nH]c3c(nnc4ccccc43)c2=O)cc1 (stereo not shown) [Example 80]
44 | > 10000 | CCOC(=O)CCCNC(=O)Nc1ccc(-n2[nH]c3c(nnc4ccccc43)c2=O)cc1 [Example 192]
45 | > 10000 | Cc1ccc2[nH]cc(CCNC(=O)c3ccc(-n4[nH]c5c(nnc6ccccc65)c4=O)cc3)c2c1 [Example 16]
46 | 1000 to 10000 | CCCCCC(C)NC(=O)c1ccc(-n2[nH]c3c(nnc4ccccc43)c2=O)cc1 (stereo not shown) [Example 43]
47 | 1000 to 10000 | CSCCNC(=O)Nc1ccc(-n2[nH]c3c(nnc4ccccc43)c2=O)cc1 [Example 178]
48 | 1000 to 10000 | O=C(NCC1CCCO1)Nc1ccc(-n2[nH]c3c(nnc4ccccc43)c2=O)cc1 (stereo not shown) [Example 198]
49 | 1000 to 10000 | CC(NC(=O)c1ccc(-n2[nH]c3c(nnc4ccccc43)c2=O)cc1)C1CCCCC1 (stereo not shown) [Example 75]
50 | 1000 to 10000 | O=C(NCc1ccc(F)cc1)c1ccc(-n2[nH]c3c(nnc4ccccc43)c2=O)cc1 [Example 56]
51 | < 1000 | CN1CCCC1CCNC(=O)c1ccc(-n2[nH]c3c(nnc4ccccc43)c2=O)cc1 (stereo not shown) [Example 61]
52 | < 1000 | O=C(NCCNCc1ccccc1)Nc1ccc(-n2[nH]c3c(nnc4ccccc43)c2=O)cc1 [Example 193]
53 | > 10000 | O=C(Nc1ccc(-n2[nH]c3c(nnc4ccccc43)c2=O)cc1)NC1CCCCC1OCc1ccccc1 (stereo not shown) [Example 212]
54 | < 1000 | CNCCNC(=O)c1ccc(-n2[nH]c3c(nnc4ccccc43)c2=O)cc1 [Example 48]
55 | 1000 to 10000 | COC(CNC(=O)c1ccc(-n2[nH]c3c(nnc4ccccc43)c2=O)cc1)OC [Example 106]
56 | < 1000 | CC[C@H](C)NC(=O)c1ccc(-n2[nH]c3c(nnc4ccccc43)c2=O)cc1 [Example 71]
57 | < 1000 | CC(C)(C)OC(=O)N1CCN(CCNC(=O)c2ccc(-n3[nH]c4c(nnc5ccccc54)c3=O)cc2)CC1 [Example 101]
58 | 1000 to 10000 | CCC(C)NC(=O)Nc1ccc(-n2[nH]c3c(nnc4ccccc43)c2=O)cc1 (stereo not shown) [Example 167]
59 | < 1000 | CC1CCCCN1CCCNC(=O)Nc1ccc(-n2[nH]c3c(nnc4ccccc43)c2=O)cc1 (stereo not shown) [Example 186]
60 | 1000 to 10000 | O=C(NCCOCCO)c1ccc(-n2[nH]c3c(nnc4ccccc43)c2=O)cc1 [Example 50]

Same assay, conditions: cell-free HTRF, concentration series 100 μM-1.7 nM, 4 hours at room temperature; read-out: Activity (EC50 in the HTRF assay)

Row | EC50 [nM] | Compound
61 | 1000 to 10000 | O=C(N[C@@H](CO)[C@@H](O)c1ccccc1)c1ccc(-n2[nH]c3c(nnc4c(F)cccc43)c2=O)cc1 [Example 513]
62 | < 1000 | O=C(NC1CCN(CCCCF)CC1)c1ccc(-n2[nH]c3c(nnc4c(F)cccc43)c2=O)cc1 [Example 471]
63 | < 1000 | NC(=O)CNC(=O)c1ccc(-n2[nH]c3c(nnc4c(F)cccc43)c2=O)cc1 [Example 491]
64 | < 1000 | O=C(NCCCCN1CCCCCC1)c1ccc(-n2[nH]c3c(nnc4c(F)cccc43)c2=O)cc1 [Example 462]
65 | < 1000 | O=C(NC1CCC(=C(F)F)CC1)c1ccc(-n2[nH]c3c(nnc4c(F)cccc43)c2=O)cc1 (stereo not shown) [Example 492]
66 | < 1000 | O=C(NC(CO)(CO)CO)c1ccc(-n2[nH]c3c(nnc4c(F)cccc43)c2=O)cc1 [Example 487]
67 | < 1000 | CN1C(C)(C)CC(NC(=O)c2ccc(-n3[nH]c4c(nnc5ccc(Cl)cc54)c3=O)cc2)CC1(C)C [Example 447]
68 | < 1000 | O=C(NCCCN1CCCCCC1)c1ccc(-n2[nH]c3c(nnc4c(F)cccc43)c2=O)cc1 [Example 451]
69 | < 1000 | CN1CCCN(C(=O)c2ccc(-n3[nH]c4c(nnc5c(F)cccc54)c3=O)cc2)CC1 [Example 489]

Same assay, conditions: inhibition of the CD80-CD28 interaction, 4 hours at room temperature; read-out: EC50 activity in the HTRF assay

Row | EC50 [nM] | Compound
70 | > 10000 | O=C(O)c1ccc(-n2[nH]c3c(nnc4c(F)cccc43)c2=O)cc1 [Example 5, 4-(6-fluoro-3-oxo-1,3-dihydro-2H-pyrazolo[4,3-c]cinnolin-2-yl)benzoic acid]
